We go through eleven compounds from ChEMBL document CHEMBL1129218, “Bisbenzamidine isoxazoline derivatives as factor Xa inhibitors” (Bioorg Med Chem Lett, 1997).

The target in one assay is Prothrombin (Homo sapiens, UniProt P00734). The assay can be described thus: The compound was evaluated for inhibitory activity against Thrombin.
The next assay has as its target Serine protease 1 (Homo sapiens, UniProt P07477). The assay is described as follows: The compound was evaluated for inhibitory activity against Trypsin.
Another assay has as its target Coagulation factor X (Homo sapiens, UniProt P00742). The assay can be described thus: Inhibition of Factor Xa.
Assay [1] relates to Rattus norvegicus. The assay is described as follows: Percent inhibition for thrombus formation after intravenous infusion at 1 mg/kg/h in a rat vena cava thrombosis model. It counts as functional.
The subject of assay [2] is Rattus norvegicus. The assay can be described thus: Percent inhibition for thrombus formation after intravenous infusion at 5 mg/kg/h in a rat vena cava thrombosis model. The assay is classed as functional.
The species named for assay [3] is Rattus norvegicus. The assay is described as follows: Compound was tested for inhibitory dose which produced 50% inhibition of thrombus formation in a rat vena cava thrombosis model. The assay is classed as functional.

Chain of Coagulation factor X (P00742 41-179 limits assumed): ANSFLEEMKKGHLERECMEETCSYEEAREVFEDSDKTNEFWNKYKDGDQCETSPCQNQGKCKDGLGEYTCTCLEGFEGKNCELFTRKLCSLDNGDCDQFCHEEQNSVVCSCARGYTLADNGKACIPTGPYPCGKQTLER
Chain of Coagulation factor X (P00742 235-488 limits assumed): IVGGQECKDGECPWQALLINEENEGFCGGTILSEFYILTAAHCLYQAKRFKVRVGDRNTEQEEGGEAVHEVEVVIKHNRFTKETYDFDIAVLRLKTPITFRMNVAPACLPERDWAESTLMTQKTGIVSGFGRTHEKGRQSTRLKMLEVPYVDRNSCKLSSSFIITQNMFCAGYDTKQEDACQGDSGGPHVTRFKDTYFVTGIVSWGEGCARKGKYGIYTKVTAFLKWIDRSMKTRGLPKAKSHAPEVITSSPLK
Chain of Serine protease 1 (P07477 whole entry): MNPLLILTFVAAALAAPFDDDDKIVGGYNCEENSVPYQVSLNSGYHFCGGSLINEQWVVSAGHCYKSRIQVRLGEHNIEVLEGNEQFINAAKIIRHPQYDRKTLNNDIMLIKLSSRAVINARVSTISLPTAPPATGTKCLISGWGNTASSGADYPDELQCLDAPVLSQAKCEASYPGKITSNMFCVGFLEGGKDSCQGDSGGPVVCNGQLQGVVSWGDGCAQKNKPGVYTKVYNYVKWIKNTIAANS

Usually Ki stands for the dissociation constant of the complex between target and ligand, obtained from inhibition or displacement. As for `N=C(N)c1ccc(C2=NOC(CC(=O)Nc3cccc(C(=N)N)c3)C2)cc1` (stereo unspecified), the Ki on Prothrombin is 2200 nM; on Serine protease 1 it was 510 nM; on Coagulation factor X it was 870 nM.

Turning to `N=C(N)c1ccc(NC(=O)C2(CC(=O)O)CC(c3cccc(C(=N)N)c3)=NO2)cc1` (stereo unspecified), the Ki on Prothrombin is over 21000 nM; at Serine protease 1 it was over 1200 nM; at Coagulation factor X, 143 nM.

In general, inhibition in vivo refers to the drop in the measured response relative to a control, in per cent. Regarding `COC(=O)CC1(C(=O)Nc2ccc(C(=N)N)cc2)CC(c2cccc(C(=N)N)c2)=NO1` (stereo unspecified), the Ki was 16000 nM on Prothrombin and 480 nM on Serine protease 1. In addition, in the assay on Rattus norvegicus [1], the inhibition in vivo at 1 mg/kg/h was 40%. Besides, the inhibition in vivo at 5 mg/kg/h in the assay with Rattus norvegicus [2] was determined as 80%. In addition, the ID50 in the assay listed under Rattus norvegicus [3] worked out at 1.6 mg/kg/h.

As to `COC(=O)CC1(C(=O)Nc2cccc(C(=N)N)c2)CC(c2cccc(C(=N)N)c2)=NO1` (stereo unspecified), the inhibition constant (Ki) worked out at 11800 nM at Prothrombin, 230 nM at Serine protease 1 and 800 nM at Coagulation factor X.

As for `N=C(N)c1ccc(NC(=O)C2CC(c3cccc(C(=N)N)c3)=NO2)cc1` (stereo unspecified), the inhibitory constant (Ki) at Prothrombin came to 16000 nM; on Serine protease 1, 700 nM; on Coagulation factor X, 270 nM.

In the case of `N=C(N)c1ccc(/C=C2/CCCC/C(=C\c3ccc(C(=N)N)cc3)C2=O)cc1`, on Coagulation factor X, the affinity corresponds to a Ki of 13 nM.

Take `N=C(N)c1cccc(NC(=O)CC2CC(c3cccc(C(=N)N)c3)=NO2)c1` (stereo unspecified): the results for the Ki at Prothrombin, at Serine protease 1 and on Coagulation factor X were 11200 nM, over 1200 nM and 1800 nM, respectively.

`COC(=O)CC1(C(=O)Nc2cccc(C(=N)N)c2)CC(c2ccc(C(=N)N)cc2)=NO1` (stereo unspecified): the inhibition constant (Ki) on Prothrombin was 14100 nM; at Serine protease 1, over 1200 nM; at Coagulation factor X, 117 nM.

In the case of `N=C(N)c1ccc(NC(=O)CC2CC(c3ccc(C(=N)N)cc3)=NO2)cc1` (stereo unspecified), the Ki came out at 2200 nM at Prothrombin and 1700 nM at Coagulation factor X.

Consider `COC(=O)CNC(=O)CC1(C(=O)Nc2ccc(C(=N)N)cc2)CC(c2cccc(C(=N)N)c2)=NO1` (stereo unspecified), for which the Ki is 3100 nM on Prothrombin, 420 nM at Serine protease 1 and 18 nM at Coagulation factor X.

Regarding `N=C(N)c1ccc(NC(=O)CC2CC(c3cccc(C(=N)N)c3)=NO2)cc1` (stereo unspecified), the Ki at Prothrombin came to 11100 nM; on Coagulation factor X, 1400 nM.
